{
  "source": "patent US20120316203A1",
  "about": "“Compositions and Methods for Inhibition of Cancers” (THE OHIO STATE UNIVERSITY RESEARCH FOUNDATION, priority 2009, published 2012)",
  "key": {"A2780 cells [1]": {"tested_on": "A2780 cells", "experiment": "Cell proliferation by clonogenic assay", "format": "cell-based, human", "conditions": "24 hours treatment, 7 days growth", "description": "Cell survival was assessed by clonogenic assay. Cells at […] confluence were trypsinized, rinsed, seeded onto 60-mm dishes (5×10^4 cells per dish), grown for 24 hours at 37° C., and treated afterward with H-4073 or HO-3867 for 24 hours. Nontreated cells served as controls. After treatment, the cells were washed twice with PBS, trypsinized, counted, and plated in 60-mm dishes in triplicate and incubated for an additional 7 days. The colonies were then stained with crystal violet (in ethyl alcohol) and counted using an automated colony counter (ColCount, Oxford Optronix). Each experiment was repeated at least five times."}, "A2780 cells [2]": {"tested_on": "A2780 cells", "experiment": "Intracellular ROS by DCF fluorescence, A2780", "format": "cell-based, human", "conditions": "5 or 10 μM, 12 h", "description": "The ROS levels in cells treated with DAPs were determined using H2DCF-DA, a membrane-permeative fluorogenic probe. The acetate and acetoxymethyl ester groups of this probe are enzymatically cleaved inside living cells. The probe can then be oxidized by intracellular oxidants (ROS) to give a product, DCF, which emits a strong, green fluorescence (λex=504 nm; λem=529 nm). The fluorescence intensity is proportional to the level of cellular oxidants. Cells, grown to 80% confluence on 6-mm glass coverslips, were treated with […] H-4073, HO-3867, H-4318, or HO-4200 for 12 h, followed by incubation with H2DCF-DA. The cells were further incubated in the dark for 20 min and washed with protein-free medium, and then fluorescence images were immediately captured with a Nikon Eclipse TE2000-U camera system using excitation/emission at 495/520 nm. The captured images were then analyzed using MetaMorph image analysis software."}, "A2780 and SKOV3 cells": {"tested_on": "A2780 and SKOV3 cells", "experiment": "Cell-migration (wound-healing) assay", "format": "cell-based, human", "conditions": "10 μM", "description": "Cell-migration assay was performed by wound-healing method. Cells were plated at equal density and grown to 90% confluence. Wounds were created using a sterile pipette tip. Cells were then rinsed with medium and replaced with the fresh medium and incubated with HO-3867 (10 μM). Areas of wound were marked and photographed at various time-points with a phase-contrast microscope. Cell-invasive assay was measured by an in vitro Boyden chamber assay. Briefly, 1×10^5 cells in 0.5 ml of serum-free RPMI 1640 medium were added to the wells of 8-μm-diameter pore membrane Boyden chambers, either coated with (BD Biosciences, Franklin Lake, N.J.) or without (Corning, Corning, N.Y.) Matrigel. Cells were allowed to invade for 24 hours. Cells that had not penetrated the filters were removed by scrubbing with cotton swabs. Chambers were fixed in 100% methanol for 2 min, stained in 0.5% crystal violet for 2 min, rinsed in PBS and examined using a bright-field microscope. Values for invasion were obtained by counting five fields per membrane and represented as the average of three independent experiments performed over multiple days."}, "[3]": {"tested_on": "USP2a, ubiquitinated FAS and FAK in A2780 and SKOV3 cells", "experiment": "Ubiquitination of FAS/FAK and USP2a level", "format": "cell-based, human", "description": "FIG. 15: HO-3867 downregulates FAS and FAK levels via proteasome pathways. To catch any ubiquitinated proteins in the cell lysates, agarose beads coated with domains having affinity to ubiquitin were incubated in the lysates at 4° C. for 2 hours. After washing the beads, the ubiquitinated proteins were subjected to immunoblot for FAS and FAK and blotted by the ubiquitin antibody. A predominant ubiquitination of FAS and FAK is seen in the HO-3867-treated A2780 and SKOV3 cells under proteasomal inhibition using MG 132 (50 μM).\nThe intracellular amount of rapid-turnover proteins, such as FAS and FAK, is tightly regulated by the ubiquitin-dependent proteolytic pathway. The fast and significant decrease in the FAS and FAK expressions observed in the HO-3867-treated cells prompted us to check any involvement of ubiquitin-dependent degradation mechanism."}, "[4]": {"tested_on": "A2780 xenograft tumor tissue", "experiment": "Immunoblot analysis of excised xenograft tumor tissue (JAK/STAT3, targets, apoptosis)", "format": "in vivo, BALB/c nude mice", "description": "Cells in RPMI 1640 were treated with DMSO (control) or HO-3867 (10 μmol/L) for 24 hours. Equal volumes of DMSO (0.1% v/v) were present in each treatment. Following treatment, the cell lysates were prepared in non-denaturing lysis buffer containing 10 mmol/L Tris-HCl (pH 7.4), 150 mmol/L NaCl, 1% Triton X-100, 1 mmol/L EDTA, 1 mmol/L EGTA, 0.3 mmol/L phenylmethyl-sulfonyl fluoride, 0.2 mmol/L sodium orthovanadate, 0.5% NP40, 1 μg/mL aprotinin, and 1 μg/mL leupetin. The lysates were centrifuged at 10,000×g for 20 minutes at 4° C. and the supernatant was separated. The protein concentration in the lysates was determined using a Pierce detergent-compatible protein assay kit. For Western blotting, 25 to 50 μg of protein lysate per sample were denatured in 2×SDS-PAGE sample buffer and subjected to SDS-PAGE on a 10% tris-glycine gel. The separated proteins were transferred to a polyvinylidene fluoride membrane and were blocked with 5% nonfat milk powder (w/v) in TBST (10 mmol/L Tris, 10 mmol/L NaCl, 0.1% Tween 20) for 1 hour at room temperature or overnight at 4° C. The membranes were then incubated with the primary antibodies. The bound antibodies were detected with horseradish peroxidase-labeled sheep anti-mouse IgG or horseradish peroxidase-labeled donkey anti-rabbit IgG using an enhanced chemiluminescence detection system (ECL Advanced kit). Protein expressions were determined using the Image Gauge v. 3.45 software.\nCultured A2780 cancer cells (2×10^6 cells in […] of PBS) were s.c. injected into the back of 6-week-old BALB/c nude mice from the National Cancer Institute. Five to 7 days later, when the tumors reached 3 to 5 mm in diameter, the mice were divided (n=9/group) in a manner to equalize the mean tumor diameter among the groups. The control group was given a normal diet (no treatment), whereas the experimental groups were treated using the DAP compounds mixed with the animal feed (Harlan Teklad) at three different levels (25, 50, and 100 ppm). The doses were chosen based on an initial dose-response study optimized to produce an observable effect on tumor growth. The size of the tumor was measured twice per week using a digital Vernier caliper. The tumor volume was determined from the orthogonal dimensions (d1, d2, d3) using the formula (d1×d2×d3)×π/6. Thirty five days after the beginning of HO-3867 treatment, the mice were sacrificed and the tumors were resected. The tumor tissues were then subjected to immunoblot analysis."}},
  "data": [
    {"smiles": "CC1(C)C=C(CN2C/C(=C\\c3ccc(F)cc3)C(=O)/C(=C/c3ccc(F)cc3)C2)C(C)(C)N1O", "note": "[HO-3867, 1-[(1-oxyl-2,2,5,5-tetramethyl-2,5-dihydro-1H-pyrrol-3-yl)methyl]-(3E,5E)-3,5-bis(4-fluorobenzylidene)piperidin-4-one]", "values": [
      {"measurement": "number of colonies (colony-forming ability)", "setting": "A2780 cells [1]", "result": "dose-dependent reduction in the number of colonies"},
      {"measurement": "intracellular ROS generation (DCF fluorescence) in A2780 cells", "setting": "A2780 cells [2]", "result": "comparable in inducing ROS generation"},
      {"measurement": "cell migration", "setting": "A2780 and SKOV3 cells; 24 hours, versus untreated cells", "result": "significant inhibition"},
      {"measurement": "VEGF-induced migration", "setting": "A2780 and SKOV3 cells; 24-h incubation, versus VEGF group", "result": "significantly inhibited"},
      {"measurement": "USP2a level", "setting": "[3]", "result": "clearly downregulated"},
      {"measurement": "polyubiquitination on FAS and FAK", "setting": "[3]; co-incubation with MG-132", "result": "enhanced polyubiquitination"},
      {"measurement": "cleaved caspase-3 and PARP in tumors", "setting": "[4]; mouse, in vivo", "result": "significant induction"},
      {"measurement": "cyclin D1, VEGF, Bcl-2, and Survivin levels in tumors", "setting": "[4]; mouse, in vivo", "result": "clear decrease"},
      {"measurement": "pJAK levels in tumor tissues", "setting": "[4]; mouse, in vivo", "result": "did not observe any significant change"},
      {"measurement": "total JAK levels in tumor tissues", "setting": "[4]; mouse, in vivo", "result": "clear downregulation"},
      {"measurement": "pSTAT3 Tyr705 and Ser727 levels in tumor tissue", "setting": "[4]; without affecting total STAT3", "result": "decreased expressions"}
    ]}
  ]
}
